Paper PMC4634704 (Bioorganic & medicinal chemistry letters, 2015)
Like-named read-outs stand apart in the source and are kept apart here.

Columns and labels:
[1] = Rat modified Irwin study / acute CNS behavioural observation
major CYP450 enzymes = assay: CYP450 inhibition
mGlu5 [2] = biological target: mGlu5 (Rattus norvegicus, UniProt P31424); assay: Allosteric agonism in rat astrocytes; type: cell-based; settings: mGlu5 endogenously expressed
mGlu1-4,6-8 = assay: mGlu family selectivity; type: cell-based; settings: selectivity versus other mGlu family members
[3] = Terminal brain and plasma levels from AHL studies
[4] = Hepatic microsomal intrinsic clearance, human; settings: predicted hepatic clearance
Rat IV cassette PK = settings: male, Sprague-Dawley, in vivo, 0.2 mg/kg
[5] = Stability in vehicle formulation; type: physicochemical; settings: 20% β-CD pH 6, 4 mg/mL, up to five days
Rat plasma stability = settings: 4 h incubation; 37 °C
[6] = Hepatic microsomal intrinsic clearance, rat; settings: predicted hepatic clearance
[7] = Simulated gastric fluid solubility and stability; settings: 1 h, 37 °C
mGlu5 [8] = biological target: mGlu5 (Homo sapiens, UniProt P41594); assay: Allosteric agonism in cell lines over expressing mGlu5; type: cell-based
[9] = system: 68 distinct GPCRs, ion channels and transporters; assay: Broad panel ancillary screen; type: binding; settings: 68 targets, Eurofins Inc.
[10] = rat, cited from earlier work
[11] = 30 days, 360 mg/kg/day, IND-enabling

Chain of mGlu5 (Homo sapiens, UniProt P41594) (P41594 21-1212): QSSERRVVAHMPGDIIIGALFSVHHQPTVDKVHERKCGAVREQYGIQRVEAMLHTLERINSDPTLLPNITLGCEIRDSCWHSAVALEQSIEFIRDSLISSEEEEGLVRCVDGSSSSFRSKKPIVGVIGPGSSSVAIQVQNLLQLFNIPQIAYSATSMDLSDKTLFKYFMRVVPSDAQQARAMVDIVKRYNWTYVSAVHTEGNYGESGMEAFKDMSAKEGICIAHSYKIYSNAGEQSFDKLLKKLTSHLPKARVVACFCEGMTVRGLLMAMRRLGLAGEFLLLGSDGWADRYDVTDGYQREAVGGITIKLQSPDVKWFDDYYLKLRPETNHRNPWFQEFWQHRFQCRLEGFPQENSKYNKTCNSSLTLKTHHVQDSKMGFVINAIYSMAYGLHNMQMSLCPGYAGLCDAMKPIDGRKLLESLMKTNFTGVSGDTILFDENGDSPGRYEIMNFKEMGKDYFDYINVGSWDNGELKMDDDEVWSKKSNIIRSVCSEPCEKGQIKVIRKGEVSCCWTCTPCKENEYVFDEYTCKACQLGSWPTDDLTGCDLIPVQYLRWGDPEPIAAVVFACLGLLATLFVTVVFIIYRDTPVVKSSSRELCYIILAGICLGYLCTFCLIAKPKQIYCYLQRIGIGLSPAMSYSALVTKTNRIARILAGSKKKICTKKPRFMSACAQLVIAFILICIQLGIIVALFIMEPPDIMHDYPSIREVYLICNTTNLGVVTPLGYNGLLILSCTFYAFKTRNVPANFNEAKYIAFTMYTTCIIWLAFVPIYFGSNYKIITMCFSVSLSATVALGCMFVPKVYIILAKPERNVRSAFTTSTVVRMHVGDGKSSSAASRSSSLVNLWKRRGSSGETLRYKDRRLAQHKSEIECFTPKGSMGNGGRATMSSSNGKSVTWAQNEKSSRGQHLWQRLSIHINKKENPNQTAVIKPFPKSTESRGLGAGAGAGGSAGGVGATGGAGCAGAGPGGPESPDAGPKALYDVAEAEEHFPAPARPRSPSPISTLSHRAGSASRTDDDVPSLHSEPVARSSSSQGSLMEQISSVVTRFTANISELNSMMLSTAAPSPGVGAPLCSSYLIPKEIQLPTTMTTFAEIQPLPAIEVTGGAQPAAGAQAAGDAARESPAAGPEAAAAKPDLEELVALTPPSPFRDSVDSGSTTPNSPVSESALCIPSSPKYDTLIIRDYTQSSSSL
Chain of mGlu5 (Rattus norvegicus, UniProt P31424) (P31424 21-1203): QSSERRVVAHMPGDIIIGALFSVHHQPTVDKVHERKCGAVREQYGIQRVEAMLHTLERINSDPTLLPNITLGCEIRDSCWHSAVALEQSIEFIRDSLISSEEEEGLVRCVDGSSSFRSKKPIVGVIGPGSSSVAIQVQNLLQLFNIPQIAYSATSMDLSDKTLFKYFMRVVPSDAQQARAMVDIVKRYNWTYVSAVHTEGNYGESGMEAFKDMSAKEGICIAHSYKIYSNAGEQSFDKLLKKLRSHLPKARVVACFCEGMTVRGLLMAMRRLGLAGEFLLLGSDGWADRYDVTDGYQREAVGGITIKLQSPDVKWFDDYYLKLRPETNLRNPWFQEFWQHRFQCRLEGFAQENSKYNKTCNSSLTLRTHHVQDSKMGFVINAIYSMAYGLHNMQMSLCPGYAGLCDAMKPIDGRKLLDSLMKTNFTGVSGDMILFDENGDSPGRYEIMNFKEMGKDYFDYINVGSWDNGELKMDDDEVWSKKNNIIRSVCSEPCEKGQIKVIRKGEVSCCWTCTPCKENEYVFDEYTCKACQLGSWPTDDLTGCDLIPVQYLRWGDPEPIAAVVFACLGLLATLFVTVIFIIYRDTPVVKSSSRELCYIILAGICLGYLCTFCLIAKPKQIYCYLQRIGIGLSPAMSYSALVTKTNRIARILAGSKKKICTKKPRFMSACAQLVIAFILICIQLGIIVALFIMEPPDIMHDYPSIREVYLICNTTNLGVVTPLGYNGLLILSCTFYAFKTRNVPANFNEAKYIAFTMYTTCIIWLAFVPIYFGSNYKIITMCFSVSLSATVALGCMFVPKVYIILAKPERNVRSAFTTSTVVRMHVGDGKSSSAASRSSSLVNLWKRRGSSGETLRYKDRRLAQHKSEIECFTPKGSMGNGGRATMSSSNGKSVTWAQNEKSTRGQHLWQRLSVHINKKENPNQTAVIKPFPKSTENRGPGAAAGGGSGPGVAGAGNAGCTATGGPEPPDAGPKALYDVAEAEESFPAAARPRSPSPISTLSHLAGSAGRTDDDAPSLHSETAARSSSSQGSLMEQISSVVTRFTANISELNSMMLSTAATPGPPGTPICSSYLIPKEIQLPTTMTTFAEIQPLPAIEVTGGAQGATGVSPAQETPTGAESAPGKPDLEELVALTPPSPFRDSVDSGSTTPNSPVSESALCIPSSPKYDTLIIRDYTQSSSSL

Compound: CC(=O)N1CCCn2nc(COc3ccccc3)cc21 [9a, 1-(2-(phenoxymethyl)-6,7-dihydropyrazolo[1,5-a]pyrimidin-4(5H)-yl)ethanone]
- brain concentration ([1]; 56.6 mg/kg, rat): 113 µM
- safety window ([1]; modified Irwin concentrations versus AHL MED): ≥ 100 fold
- behaviour across 30 autonomic and somatomotor endpoints ([1]; modified Irwin, 30 mg/kg PO, rat): no observable alterations in behavior
- concentration at 1 h ([1]; rat, in vivo, 30 mg/kg, est. Cb,u, 30 mg/kg PO, 1.0 h post-dose): 36 µM
- IC50 (major CYP450 enzymes): > 30 µM
- allosteric agonism (mGlu5 [2]): no allosteric agonism was detected
- bioavailability (Discrete dog PK): low bioavailability
- clearance (Discrete dog PK): moderate to high
- exposure (Discrete dog PK; IV and oral): poor exposure
- FS at mGlu1-4,6-8 (mGlu1-4,6-8): < 1.2
- terminal estimated unbound brain concentration ([3]; AHL 3 mg/kg PO, rat): 199 nM
- CLhep (h) [4]: > 12 mL/min/kg
- clearance (Discrete rat PK): moderate to high
- clearance (Rat IV cassette PK): > 70 mL/min/kg
- decomposition in vehicle formulation [5]: < 5%
- rat plasma stability (Rat plasma stability): stable
- CLhep (r) [6]: > 35 mL/min/kg
- decomposition in simulated gastric fluid [7]: < 5%
- allosteric agonism (mGlu5 [8]): no allosteric agonism was detected
- activity in broad panel ancillary screen [9]: no noted activity

Compound: CC(=O)N1CCCn2nc(COc3ccccc3F)cc21 [12a]
- terminal brain concentration ([3]; AHL 10 mg/kg PO, T90, rat): not detected
- clearance (Rat IV cassette PK): > 70 mL/min/kg
- rat plasma stability (Rat plasma stability): stable

Compound: CC(=O)N1CCCn2nc(COc3cccc(F)c3)cc21 [12b]
- CLhep (h) [4]: > 12 mL/min/kg
- CLhep (r) [6]: > 35 mL/min/kg

Compound: O=C(c1ccc(F)cc1)N1CCc2nc(COc3ccccc3)oc2C1 [compound 1]
- neurotoxicity ([10]; 14 day oral dose-limiting study, 450 mg/kg/day): no neurotoxicity was observed
- exposure ([10]; 14 day, 450 mg/kg/day): 273-440 μM-h
- Fluoro-Jade C staining [10, 11]: induced Fluoro-Jade C staining in a small number of rats
- exposure [10, 11]: 253-416 μM-h
